Experimental data from ChEMBL document CHEMBL5385865, “Discovery and optimization of 2-(trifluoromethyl)benzimidazole derivatives as novel ferroptosis inducers in vitro and in vivo” (Eur J Med Chem, 2023).
Activity calls are given as the source filed them. No cut-off for these calls is given here.

How the values were obtained:
HT-1080 [1] = test: Induction of ferroptosis in human HT-1080 cells assessed as increase in lipid ROS accumulation at 0.5 to 5 uM incubated for 10 hrs by flow cytometry; format: functional, cell-based; details: dose 0.5-5 µM
[2] = Toxicity in human NCM460 cells upto 20 uM incubated for 48 hrs by MTT assay; format: cell-based; details: ncm460, 48 h
786-0 = test: Lethality in human 786-0 cells assessed as inhibition of cell viability incubated for 24 hrs by MTT assay; format: functional, cell-based; details: 786-0, 24 h
HepG2 [3] = test: Lethality in human HepG2 cells assessed as decrease in cell viability at 10 uM incubated for 48 hrs in presence of Fer-1 by MTT assay; format: functional, cell-based
[4] = Toxicity in human HEK293T cells upto 20 uM incubated for 48 hrs by MTT assay; format: cell-based; details: hek-293t
HT-1080 [5] = test: Induction of ferroptosis in human HT-1080 cells assessed as increase in CHAC1 mRNA level incubated for 6 hrs by qPCR analysis; format: functional, cell-based; details: dose 0.5-5 µM
HepG2 [6] = test: Lethality in human HepG2 cells assessed as decrease in cell viability at 10 uM incubated for 48 hrs in presence of DFO by MTT assay; format: functional, cell-based
[7] = Metabolic stability in rat liver microsomes assessed as intrinsic clearance measured per mg protein at 1 uM in presence of NADPH by LC-MS analysis; format: ADME, Microsome; details: read-out: CLH
HepG2 [8] = test: Induction of apoptosis in human HepG2 cells xenografted in BALB/c nude mouse at 15 to 30 mg/kg, ip administered every other day for 21 days by TUNEL staining based IHC analysis; format: functional, organism-based; details: dose 15-30 mg/kg, time 21.0 day
[9] = biological target: T1, Phospholipid hydroperoxide glutathione peroxidase GPX4 (Homo sapiens) (UniProt P36969); test: Inhibition of GPX4 in human HT-1080 cells at 10 to 40 uM incubated for 12 hrs; format: cell-based; details: dose 10-40 µM
T1 sequence (whole entry): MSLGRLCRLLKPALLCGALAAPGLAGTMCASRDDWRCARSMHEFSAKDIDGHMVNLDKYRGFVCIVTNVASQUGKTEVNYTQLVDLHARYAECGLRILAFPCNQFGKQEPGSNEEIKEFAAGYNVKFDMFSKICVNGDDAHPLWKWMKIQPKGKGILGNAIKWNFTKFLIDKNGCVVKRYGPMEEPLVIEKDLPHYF

HepG2 [10] = test: Antitumor activity against human HepG2 cells xenografted in BALB/c nude mouse assessed as tumor growth inhibition at 15 mg/kg, ip administered every other day for 21 days by electronic caliper analysis relative to control; format: functional; details: HepG2, 504 h, time 21 day, read-out: TGI
HepG2 [11] = test: Lethality in human HepG2 cells assessed as decrease in cell viability at 10 uM incubated for 48 hrs by MTT assay; format: functional, cell-based
[12] = Toxicity in BALB/c nude mouse xenografted with human HepG2 cells assessed as effect on serum CREA level at 15 to 30 mg/kg, ip administered every other day for 21 days; format: organism-based; details: in vivo, 504 h, dose 15-30 mg/kg, time 21 day
HeLa [13] = test: Lethality in human HeLa cells assessed as decrease in cell viability at 10 uM incubated for 48 hrs by MTT assay; format: functional, cell-based
HeLa [14] = test: Lethality in human HeLa cells assessed as decrease in cell viability at 10 uM incubated for 48 hrs in presence of DFO by MTT assay; format: functional, cell-based
HT-1080 [15] = test: Induction of ferroptosis in human HT-1080 cells assessed as increase in SLC7A11 mRNA level incubated for 18 hrs by qPCR analysis; format: functional, cell-based; details: dose 0.5-5 µM
[16] = Toxicity in BALB/c nude mouse xenografted with human HepG2 cells assessed as effect on serum ALT level at 15 to 30 mg/kg, ip administered every other day for 21 days; format: organism-based; details: in vivo, 504 h, dose 15-30 mg/kg, time 21 day
HT-1080 [17] = test: Induction of ferroptosis in human HT-1080 cells assessed as increase in cytosolic ROS accumulation incubated for 10 hrs by H2DCFDA probe based flow cytometry; format: functional, cell-based; details: dose 0.5-5 µM
HeLa [18] = test: Lethality in human HeLa cells assessed as inhibition of cell viability incubated for 24 hrs by MTT assay; format: functional, cell-based
HT-1080 [19] = test: Induction of ferroptosis in human HT-1080 cells assessed as cell death at 5 uM incubated for 24 hrs in presence of Fer-1 by morphology based microscopy; format: functional
HT-1080 [20] = test: Induction of ferroptosis in human HT-1080 cells assessed as increase in lipid ROS accumulation at 5 uM incubated for 10 hrs by BODIPY-C11 probe based confocal laser scanning microscopy; format: functional, cell-based
[21] = Toxicity in BALB/c nude mouse xenografted with human HepG2 cells assessed as effect on serum TBIL level at 15 to 30 mg/kg, ip administered every other day for 21 days; format: organism-based; details: in vivo, 504 h, dose 15-30 mg/kg, time 21 day
HT-1080 [22] = test: Induction of ferroptosis in human HT-1080 cells assessed as cell death at 5 uM incubated for 6 hrs in presence of ferric ammonium citrate by fluorescent microscopy; format: functional, cell-based
HT-1080 [23] = test: Induction of ferroptosis in human HT-1080 cells assessed as decrease in GSH level incubated for 12 hrs by DTNB method; format: functional, cell-based; details: dose 0.5-5 µM
A-375 = test: Lethality in human A-375 cells assessed as decrease in cell viability at 10 uM incubated for 48 hrs in presence of Fer-1 by MTT assay; format: functional, cell-based
HepG2 [24] = test: Induction of ferroptosis in human HepG2 cells xenografted in BALB/c nude mouse assessed as increase in MDA level administered intraperitoneally every other day for 21 days; format: functional; details: dose 15-30 mg/kg, route ip, time 21.0 day
[25] = Toxicity in human AC16 cells upto 20 uM incubated for 48 hrs by MTT assay; format: cell-based; details: ac16 [human hybrid]
DU-145 = test: Lethality in human DU-145 cells assessed as decrease in cell viability at 10 uM incubated for 48 hrs in presence of Fer-1 by MTT assay; format: functional, cell-based
HT-1080 [26] = test: Induction of ferroptosis in human HT-1080 cells assessed as increase in lipid ROS accumulation at 5 uM incubated for 10 hrs in presence of Fer-1 by BODIPY-C11 probe based confocal laser scanning microscopy; format: functional, cell-based

CN(C)S(=O)(=O)c1ccc(N2CCC(Cn3c(C(F)(F)F)nc4ccccc43)CC2)cc1
Activity (HT-1080 [1]): Active | Activity [2]: Non-Toxic | IC50 (786-0): 700 nM | Activity (HepG2 [3]): inactive | Activity [4]: Toxic | Activity (HT-1080 [5]): Dose-Dependent Effect | Activity (HepG2 [6]): inactive | microsomal CLint at 1 µM [7]: 133 µL/min/mg | Activity (HepG2 [8]): inactive | inhibition [9]: inactive | inhibition in vivo at 15 mg/kg (HepG2 [10]): 47.6% | Activity (HepG2 [11]): Active | Activity [12]: Non-Toxic | Activity (HeLa [13]): Active | Activity (HeLa [14]): inactive | Activity (HT-1080 [15]): Dose-Dependent Effect | Activity [16]: Non-Toxic | Activity (HT-1080 [17]): Dose-Dependent Effect | IC50 (HeLa [18]): 1910 nM | Activity (HT-1080 [19]): inactive | Activity (HT-1080 [20]): Active | Activity [21]: Non-Toxic | Activity (HT-1080 [22]): Active | Activity (HT-1080 [23]): Dose-Dependent Effect | Activity (A-375): inactive | Activity (HepG2 [24]): Dose-Dependent Effect | Activity [25]: Non-Toxic | Activity (DU-145): inactive | Activity (HT-1080 [26]): inactive
